Measured values taken from article PMC9686514, “Design of Antimicrobial Peptides with Cell-Selective Activity and Membrane-Acting Mechanism against Drug-Resistant Bacteria” (Antibiotics, 2022).
Where no end group is shown, it is not given here.

What was measured:
Format in all cases: cell-based
[1] = system: HaCaT (human keratinocyte) cells; test: Cytotoxicity (MTT); details: 200 µM, 24 h, 37 °C
Experimental: To examine the cytotoxic effect of peptides, HaCaT (human keratinocyte) cells were sub-cultured in Dulbecco’s modified Eagle medium (DMEM) containing 10% fetal bovine serum, 100 µg/mL streptomycin, and 100 U/mL penicillin at 37 °C in a 5% CO2 chamber. The cells seeded into 4 × 10^3 cells/well were incubated for 24 h. Peptide solutions diluted with DMEM were incubated with cells for 24 h at 37 °C. 3-(4,5-Dimethyl-2-thiazolyl)-2,5-diphenyltetrazolium Bromide (MTT) solution was added to the cells, followed by additional incubation for 4 h. After removing the media, 200 µL of dimethyl sulfoxide was added to the wells. Absorbance of each well was measured at 570 nm using a microtiter reader (Molecular Devices Emax, CA, USA).

[2] = system: rat red blood cells; test: Hemolysis; details: 6.25 µM; 8% (v/v) rat RBCs in PBS, 1 h, 37 °C, absorbance 414 nm
Experimental: Fresh rat erythrocytes were collected and washed by centrifugation at 1000× g for 10 min with PBS. The rat RBCs (8% (v/v)) were added in a two-fold serially diluted peptide with PBS, followed by incubation for 1 h at 37 °C. After centrifugation of samples at 1000× g for 10 min, the supernatants were collected and their absorbance was measured at 414 nm. The 8% RBCs dissolved in PBS and RBCs treated with Triton X-100 were considered as the negative and positive controls, respectively. The hemolysis activity was calculated using the formula, % hemolysis = [(Abssample − Absnegative)/(Abspositive − Absnegative)] × 100 [43, 44].

[3] = system: Escherichia coli (ATCC 25922); details: ATCC 25922, 24 h, pH 7.2
Excerpt: (§1) Pseudomonas aeruginosa (ATCC 15692), Escherichia coli (ATCC 25922), and Staphylococcus aureus (ATCC 25923) were purchased from the American Type Culture Collection. Listeria monocytogens (KCTC 3710) and Bacillus subtilis (KCTC 1998) were from the Korean Collection for Type Cultures. Drug-resistant S. aureus (DRSa-001~005) and P. aeruginosa (DRPa-001~005) were collected from Paik Hospital of Inje University in Busan, South Korea. Pre-cultured bacteria grown to mid-log phase were suspended in 10 mM sodium phosphate (SP, pH 7.2) or phosphate-buffered saline (PBS, pH 7.2) with 10% culture media. Bacterial suspensions were added to each peptide dilute (final 5 × 10^5 colony-forming units (cfu)/mL), after which the plates were incubated at 37 °C for 24 h. The turbidity of each well was measured at the absorbance at 600 nm and the morphology of bacterial growth was observed under light microscopy. MICs (Minimum inhibitory concentrations) were defined as the lowest concentration of peptide that expresses the complete inhibition of bacterial growth.

[4] = system: Pseudomonas aeruginosa (ATCC 15692); details: ATCC 15692, 24 h, pH 7.2
Excerpt: as §1

[5] = system: Listeria monocytogenes (KCTC 3710); details: KCTC 3710, 24 h, pH 7.2
Excerpt: as §1

[6] = system: Staphylococcus aureus (ATCC 25923); details: ATCC 25923, 24 h, pH 7.2
Excerpt: as §1

[7] = system: Bacillus subtilis (KCTC 1998); details: KCTC 1998, 24 h, pH 7.2
Excerpt: as §1

| MIC, Ec [3] | MIC, Ec (numbers in parentheses) [3] | MIC, Pa [4] | MIC, Pa (numbers in parentheses) [4] | MIC, Lm [5] | MIC, Lm (numbers in parentheses) [5] | MIC, Sa [6] | MIC, Sa (numbers in parentheses) [6] | MIC, Bs [7] | MIC, Bs (numbers in parentheses) [7] | Compound | Cell survival [1] | Hemolytic effect [2] |
| --- | --- | --- | --- | --- | --- | --- | --- | --- | --- | --- | --- | --- |
| 4(4) μM | 4(4) μM | 2(2) μM | 2(2) μM | 0.5 µM | 1 µM | 4 µM | 8 µM | 1 µM | 2 µM | KKIIKKIIKKIWKW-NH2 [KIW-14] | – | – |
| 4(4) μM | 4(4) μM | 2(2) μM | 2(2) μM | 0.5 µM | 1 µM | 4 µM | 8 µM | 1 µM | 2 µM | KKIWKKWIKKIIKI-NH2 [KWI-14] | – | – |
| 2 µM | 4 µM | 16 µM | 32 µM | 2 µM | 8 µM | 8 µM | 16 µM | 1 µM | 4 µM | RRIWRRWIRI-NH2 [RWI-10] | – | – |
| 2 µM | 4 µM | 4 µM | 8 µM | 2(2) μM | 2(2) μM | 4 µM | 8 µM | 1(1) μM | 1(1) μM | WIRRIWRRIR-NH2 [WIR-10] | – | – |

The next lines start with the compound.

| Compound | MIC, Ec [3] | MIC, Ec (numbers in parentheses) [3] | MIC, Pa [4] | MIC, Pa (numbers in parentheses) [4] | MIC, Lm [5] | MIC, Lm (numbers in parentheses) [5] | MIC, Sa [6] | MIC, Sa (numbers in parentheses) [6] | MIC, Bs [7] | MIC, Bs (numbers in parentheses) [7] | Cell survival [1] | Hemolytic effect [2] |
| --- | --- | --- | --- | --- | --- | --- | --- | --- | --- | --- | --- | --- |
| CC[C@H](C)[C@H](NC(=O)CN)C(=O)NCC(=O)N[C@@H](C)C(=O)N[C@H](C(=O)N[C@@H](CC(C)C)C(=O)N[C@@H](CCCCN)C(=O)N[C@H](C(=O)N[C@@H](CC(C)C)C(=O)N[C@H](C(=O)N[C@H](C(=O)NCC(=O)N[C@@H](CC(C)C)C(=O)N1CCC[C@H]1C(=O)N[C@@H](C)C(=O)N[C@@H](CC(C)C)C(=O)N[C@H](C(=O)N[C@@H](CO)C(=O)N[C@@H](Cc1c[nH]c2ccccc12)C(=O)N[C@H](C(=O)N[C@@H](CCCCN)C(=O)N[C@@H](CCCNC(=N)N)C(=O)N[C@@H](CCCCN)C(=O)N[C@@H](CCCNC(=N)N)C(=O)N[C@@H](CCC(N)=O)C(=O)N[C@@H](CCC(N)=O)C(N)=O)[C@@H](C)CC)[C@@H](C)CC)[C@@H](C)O)[C@@H](C)O)C(C)C)C(C)C [Melittin] | – | – | – | – | – | – | – | – | – | – | less than 20% | strong hemolytic effect |
| KKIIKKIWKW-NH2 [KIW-10] | 8 µM | 64 µM | 16 µM | 64 µM | 4 µM | 128 µM | 16 µM | 128 µM | 4 µM | 32 µM | – | – |
| KKIWKKWIKI-NH2 [KWI-10] | 8 µM | 64 µM | 16 µM | 64 µM | 2 µM | 64 µM | 16 µM | 128 µM | 2 µM | 32 µM | – | – |
| RRIIRRIWRW-NH2 [RIW-10] | 8 µM | 16 µM | 16 µM | 32 µM | 2 µM | 8 µM | 8 µM | 16 µM | 2 µM | 4 µM | – | – |
| WIKKIWKKIIKEIK-NH2 [WIKE-14] | 4 µM | 64 µM | 8 µM | 32 µM | 4 µM | 8 µM | 16 µM | 128 µM | 2 µM | 8 µM | – | – |
| WIKKIWKKIIKKIK-NH2 [WIK-14] | 4(4) μM | 4(4) μM | 2(2) μM | 2(2) μM | 0.5 µM | 1 µM | 2((2) μM | 2((2) μM | 1(1) μM | 1(1) μM | – | – |
| WIKKIWKKIK-NH2 [WIK-10] | 8 µM | 32 µM | 8 µM | 32 µM | 2 µM | 16 µM | 8 µM | 64 µM | 2 µM | 8 µM | – | – |
